Molecular target: human NEP (Homo sapiens (Human), UniProt P08473)
Experiment: In vitro enzyme inhibition assay at human NEP
Conditions: recombinant human NEP, fluorogenic peptide substrate, 37° C.; for Ki: pKi

Chain of human NEP (P08473 52-750): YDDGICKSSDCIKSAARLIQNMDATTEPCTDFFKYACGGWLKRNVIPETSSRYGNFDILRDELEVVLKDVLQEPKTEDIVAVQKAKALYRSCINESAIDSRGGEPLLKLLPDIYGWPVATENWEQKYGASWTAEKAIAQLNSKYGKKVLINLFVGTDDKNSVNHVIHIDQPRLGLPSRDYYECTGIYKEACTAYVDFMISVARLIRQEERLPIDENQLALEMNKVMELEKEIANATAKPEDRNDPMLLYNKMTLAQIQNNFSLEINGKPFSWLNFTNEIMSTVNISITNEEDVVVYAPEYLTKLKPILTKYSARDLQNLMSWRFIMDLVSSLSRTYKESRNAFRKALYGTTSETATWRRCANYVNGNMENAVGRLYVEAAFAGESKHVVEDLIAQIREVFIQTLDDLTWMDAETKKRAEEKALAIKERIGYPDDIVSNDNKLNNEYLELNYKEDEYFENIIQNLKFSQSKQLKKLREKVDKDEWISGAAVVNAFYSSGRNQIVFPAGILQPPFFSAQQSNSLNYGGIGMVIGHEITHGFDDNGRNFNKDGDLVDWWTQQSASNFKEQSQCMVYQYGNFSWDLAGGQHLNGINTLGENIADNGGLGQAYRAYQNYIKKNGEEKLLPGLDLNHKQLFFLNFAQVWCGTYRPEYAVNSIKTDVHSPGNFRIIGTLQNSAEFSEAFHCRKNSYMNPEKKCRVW

| SMILES | pKi | Ki [nM] |
| --- | --- | --- |
| CCOC[C@H](C[C@@H](Cc1ccc(-c2cc(Cl)ccc2F)cc1)NC(=O)c1cc(CC)no1)C(=O)O [Example 7-5, (2S,4S)-5-(5′-Chloro-2′-fluorobiphenyl-4-yl)-2-ethoxymethyl-4-[(3-ethylisoxazole-5-carbonyl)amino]pentanoic acid] | ≧9.0 |  |
| CCOC[C@H](C[C@@H](Cc1ccc(-c2cc(Cl)ccc2F)cc1)NC(=O)c1ncco1)C(=O)O [Example 7-6, (2S,4S)-5-(5′-Chloro-2′-fluorobiphenyl-4-yl)-2-ethoxymethyl-4-[(oxazole-2-carbonyl)amino]pentanoic acid] | ≧9.0 |  |
| CCOC[C@H](C[C@@H](Cc1ccc(-c2cc(Cl)ccc2F)cc1)NC(=O)c1cocn1)C(=O)O [Example 7-7, (2S,4S)-5-(5′-Chloro-2′-fluorobiphenyl-4-yl)-2-ethoxymethyl-4-[(oxazole-4-carbonyl)amino]pentanoic acid] |  | 1.26 to 3.16 |
| CCOC[C@H](C[C@@H](Cc1ccc(-c2cc(Cl)ccc2F)cc1)NC(=O)c1coc(C2CC2)n1)C(=O)O [Example 7-8, (2S,4S)-5-(5′-Chloro-2′-fluorobiphenyl-4-yl)-4-[(2-cyclopropyloxazole-4-carbonyl)amino]-2-ethoxymethylpentanoic acid] |  | 1.26 to 3.16 |
| CCOC[C@H](C[C@@H](Cc1ccc(-c2cc(Cl)ccc2F)cc1)NC(=O)c1c[nH]c(=O)o1)C(=O)O [Example 7-9, (2S,4S)-5-(5′-Chloro-2′-fluorobiphenyl-4-yl)-2-ethoxymethyl-4-[(2-oxo-2,3-dihydro-oxazole-5-carbonyl)amino]pentanoic acid] | ≧9.0 |  |
| CCOC[C@H](C[C@@H](Cc1ccc(-c2cc(Cl)ccc2F)cc1)NC(=O)c1noc(=O)[nH]1)C(=O)O [Example 7-10, (2S,4S)-5-(5′-Chloro-2′-fluorobiphenyl-4-yl)-2-ethoxymethyl-4-[(5-oxo-4,5-dihydro-[1,2,4]oxadiazole-3-carbonyl)amino]pentanoic acid] | ≧9.0 |  |
| CCOC[C@H](C[C@@H](Cc1ccc(-c2cc(Cl)ccc2F)cc1)NC(=O)c1ncccn1)C(=O)O [Example 7-11, (2S,4S)-5-(5′-Chloro-2′-fluorobiphenyl-4-yl)-2-ethoxymethyl-4-[(pyrimidine-2-carbonyl)amino]pentanoic acid] | ≧9.0 |  |
| CCOC[C@H](C[C@@H](Cc1ccc(-c2cccc(Cl)c2)cc1)NC(=O)c1cc(O)no1)C(=O)O [Example 8, (2S,4S)-5-(3′-Chlorobiphenyl-4-yl)-2-ethoxymethyl-4-[(3-hydroxyisoxazole-5-carbonyl)amino]pentanoic Acid] |  | ≤ 1 |
| CCOC[C@H](C[C@@H](Cc1ccc(-c2cccc(Cl)c2)cc1)NC(=O)c1c[nH]nn1)C(=O)O [Example 9-1, (2S,4S)-5-(3′-Chlorobiphenyl-4-yl)-2-ethoxymethyl-4-[(1H-[1,2,3]triazole-4-carbonyl)amino]pentanoic acid] | ≧9.0 |  |
| CCOC[C@H](C[C@@H](Cc1ccc(-c2cccc(Cl)c2)cc1)NC(=O)c1cc(C(C)=O)[nH]n1)C(=O)O [Example 9-2, (2S,4S)-4-[(5-Acetyl-1H-pyrazole-3-carbonyl)-amino]-5-(3′-chlorobiphenyl-4-yl)-2-ethoxymethylpentanoic acid] | ≧9.0 |  |
| CCOC[C@H](C[C@@H](Cc1ccc(-c2cccc(Cl)c2)cc1)NC(=O)c1n[nH]c(C(F)(F)F)n1)C(=O)O [Example 9-3, (2S,4S)-5-(3′-Chlorobiphenyl-4-yl)-2-ethoxymethyl-4-[(5-trifluoromethyl-1H-[1,2,4]triazole-3-carbonyl)amino]pentanoic acid] | ≧9.0 |  |
| CCOC[C@H](C[C@@H](Cc1ccc(-c2cccc(Cl)c2)cc1)NC(=O)c1cc(OC)no1)C(=O)O [Example 9-4, (2S,4S)-5-(3′-Chlorobiphenyl-4-yl)-2-ethoxymethyl-4-[(3-methoxy-isoxazole-5-carbonyl)amino]pentanoic acid] | ≧9.0 |  |
| CCOC[C@H](C[C@@H](Cc1ccc(-c2cccc(Cl)c2)cc1)NC(=O)c1noc(=O)[nH]1)C(=O)O [Example 9-5, (2S,4S)-5-(3′-Chlorobiphenyl-4-yl)-2-ethoxymethyl-4-[(5-oxo-4,5-dihydro-[1,2,4]oxadiazole-3-carbonyl)amino]pentanoic acid] | ≧9.0 |  |
| CCOC[C@H](C[C@@H](Cc1ccc(-c2ccccc2)cc1)NC(=O)c1c[nH]nn1)C(=O)O [Example 10, (2S,4S)-5-Biphenyl-4-yl-2-ethoxymethyl-4-[(1H-[1,2,3]triazole-4-carbonyl)amino]pentanoic Acid] | ≧9.0 |  |
| O=C(N[C@H](Cc1ccc(-c2ccccc2)cc1)C[C@@H](COCCO)C(=O)O)c1c[nH]nn1 [Example 11, (2S,4S)-5-Biphenyl-4-yl-2-(2-hydroxyethoxymethyl)-4-[(1H-[1,2,3]triazole-4-carbonyl)amino]pentanoic Acid] |  | 1.26 to 3.16 |
| O=C(N[C@H](Cc1ccc(-c2ccccc2)cc1)C[C@@H](COCCCO)C(=O)O)c1c[nH]nn1 [Example 12, (2S,4S)-5-Biphenyl-4-yl-2-(3-hydroxypropoxymethyl)-4-[(1H-[1,2,3]triazole-4-carbonyl)amino]pentanoic Acid] |  | 1.26 to 3.16 |

| SMILES | pKi | Ki [nM] |
| --- | --- | --- |
| N[C@H](C[C@@H](Cc1ccc(-c2cc(Cl)ccc2F)cc1)NC(=O)c1c[nH]nn1)C(=O)O [Example 13, (2R,4R)-2-Amino-5-(5′-chloro-2′-fluorobiphenyl-4-yl)-4-[(1H-[1,2,3]triazole-4-carbonyl)amino]pentanoic Acid] |  | ≤ 1 |
| CC(C)c1coc(C(=O)N[C@H](Cc2ccc(-c3cc(Cl)ccc3F)cc2)C[C@@H](N)C(=O)O)n1 [Example 15, (2R,4R)-2-Amino-5-(5′-chloro-2′-fluorobiphenyl-4-yl)-4-[(4-isopropyloxazole-2-carbonyl)amino]pentanoic Acid] |  | ≤ 1 |
| CCc1cc(C(=O)N[C@H](Cc2ccc(-c3cc(Cl)ccc3F)cc2)C[C@@H](N)C(=O)O)on1 [Example 16-1, (2R,4R)-2-Amino-5-(5′-chloro-2′-fluorobiphenyl-4-yl)-4-[(3-ethylisoxazole-5-carbonyl)-amino]pentanoic acid] |  | 1.26 to 3.16 |
| CCCc1cc(C(=O)N[C@H](Cc2ccc(-c3cc(Cl)ccc3F)cc2)C[C@@H](N)C(=O)O)no1 [Example 16-2, (2R,4R)-2-Amino-5-(5′-chloro-2′-fluorobiphenyl-4-yl)-4-[(5-propylisoxazole-3-carbonyl)-amino]pentanoic acid] |  | 1.26 to 3.16 |
| Cc1cnc(C(=O)N[C@H](Cc2ccc(-c3cc(Cl)ccc3F)cc2)C[C@@H](N)C(=O)O)o1 [Example 16-3, (2R,4R)-2-Amino-5-(5′-chloro-2′-fluorobiphenyl-4-yl)-4-[(5-methyloxazole-2-carbonyl)-amino]pentanoic acid] |  | 1.26 to 3.16 |
| N[C@H](C[C@@H](Cc1ccc(-c2cc(Cl)ccc2F)cc1)NC(=O)c1coc(C2CC2)n1)C(=O)O [Example 16-4, (2R,4R)-2-Amino-5-(5′-chloro-2′-fluorobiphenyl-4-yl)-4-[(2-cyclopropyloxazole-4-carbonyl)amino]pentanoic acid] |  | 1.26 to 3.16 |
| CCOc1nc(C(=O)N[C@H](Cc2ccc(-c3cc(Cl)ccc3F)cc2)C[C@@H](N)C(=O)O)co1 [Example 16-5, (2R,4R)-2-Amino-5-(5′-chloro-2′-fluorobiphenyl-4-yl)-4-[(2-ethoxyoxazole-4-carbonyl)-amino]pentanoic acid] |  | 3.16 to 10 |
| CCCc1nc(C(=O)N[C@H](Cc2ccc(-c3cc(Cl)ccc3F)cc2)C[C@@H](N)C(=O)O)co1 [Example 16-6, (2R,4R)-2-Amino-5-(5′-chloro-2′-fluorobiphenyl-4-yl)-4-[(2-propyloxazole-4-carbonyl)-amino]pentanoic acid] |  | 3.16 to 10 |
| N[C@H](C[C@@H](Cc1ccc(-c2cc(Cl)ccc2F)cc1)NC(=O)c1ccc(Cl)cn1)C(=O)O [Example 16-7, (2R,4R)-2-Amino-5-(5′-chloro-2′-fluorobiphenyl-4-yl)-4-[(5-chloropyridine-2-carbonyl)-amino]pentanoic acid] |  | 3.16 to 10 |
| N[C@H](C[C@@H](Cc1ccc(-c2cc(Cl)ccc2F)cc1)NC(=O)c1ccns1)C(=O)O [Example 16-8, (2R,4R)-2-Amino-5-(5′-chloro-2′-fluorobiphenyl-4-yl)-4-[(isothiazole-5-carbonyl)amino]-pentanoic acid] |  | 3.16 to 10 |
| CC(=O)c1cc(C(=O)N[C@H](Cc2ccc(-c3cc(Cl)ccc3F)cc2)C[C@@H](N)C(=O)O)[nH]n1 [Example 16-9, (2R,4R)-4-[(5-Acetyl-2H-pyrazole-3-carbonyl)amino]-2-amino-5-(5′-chloro-2′-fluoro-biphenyl-4-yl)pentanoic acid] | ≧9.0 |  |
| CCOC(=O)[C@H](N)C[C@@H](Cc1ccc(-c2cc(Cl)ccc2F)cc1)NC(=O)c1cc(O)no1 [Example 16-11, (2R,4R)-2-Amino-5-(5′-chloro-2′-fluorobiphenyl-4-yl)-4-[(3-hydroxyisoxazole-5-carbonyl)amino]pentanoic acid ethyl ester] |  | 3.16 to 10 |
| N[C@@H](C[C@@H](Cc1ccc(-c2cc(Cl)ccc2F)cc1)NC(=O)c1noc(=O)[nH]1)C(=O)O [Example 16-15, (2S,4R)-2-Amino-5-(5′-chloro-2′-fluorobiphenyl-4-yl)-4-[(5-oxo-4,5-dihydro-[1,2,4]oxadiazole-3-carbonyl)amino]pentanoic acid] |  | 3.16 to 10 |
| N[C@H](C[C@@H](Cc1ccc(-c2cc(Cl)ccc2F)cc1)NC(=O)c1noc(=O)[nH]1)C(=O)O [Example 16-16, (2R,4R)-2-Amino-5-(5′-chloro-2′-fluorobiphenyl-4-yl)-4-[(5-oxo-4,5-dihydro-[1,2,4]oxadiazole-3-carbonyl)amino]pentanoic acid] | ≧9.0 |  |
| CN(C)C(=O)c1cc(C(=O)N[C@H](Cc2ccc(-c3cc(Cl)ccc3F)cc2)C[C@@H](N)C(=O)O)[nH]n1 [Example 16-18, (2R,4R)-2-Amino-5-(5′-chloro-2′-fluorobiphenyl-4-yl)-4-[(5-dimethylcarbamoyl-2H-pyrazole-3-carbonyl)amino]pentanoic acid] | ≧9.0 |  |
| Cc1n[nH]c(C(=O)N[C@H](Cc2ccc(-c3cc(Cl)ccc3F)cc2)C[C@@H](N)C(=O)O)c1F [Example 16-20, (2R,4R)-2-Amino-5-(5′-chloro-2′-fluorobiphenyl-4-yl)-4-[(4-fluoro-5-methyl-2H-pyrazole-3-carbonyl)amino]pentanoic acid] |  | 1.26 to 3.16 |
